{"source": "patent US20220322673A1", "about": "“Novel Agrochemical Combinations” (UPL LIMITED, priority 2019, published 2022)", "format_in_all_cases": "in vivo", "key": {"[1]": {"tested_on": "Okra Aphids (Aphis gossypii)", "details": "for Percent control (%) of Okra Aphids, Nymphs + Adults, A01: A01 = 1 day after first spray; for Percent control (%) of Okra Aphids, Nymphs + Adults, B03: B03 = 3 days after 2nd spray; for Percent control (%) of Okra Aphids, Nymphs + Adults, B07: B07 (after 2nd spray); for Percent control (%) of Okra Aphids, Nymphs + Adults, B10: B10 (after 2nd spray); for Percent control (%) of Okra Aphids, Nymphs + Adults, C03: C03 = 3 days after third spray; for Percent control (%) of Okra Aphids, Nymphs + Adults, C10: C10 (after third spray)", "from_the_text": "(§1) In this evaluation, feeding damage & insect population on Okra Leaves before and after sprays is averaged and analyzed for the test of significance. Application method: Three applications (application A, B and C) within an interval of 14 days."}, "[2]": {"tested_on": "Okra Jassids (Amrasca bigutulla bigutulla)", "details": "for Percent control (%) of Okra Jassids, Nymphs + Adults, A01: A01 = 1 day after first spray; for Percent control (%) of Okra Jassids, Nymphs + Adults, A10: A10 (after 1st spray); for Percent control (%) of Okra Jassids, Nymphs + Adults, B03: B03 = 3 days after 2nd spray; for Percent control (%) of Okra Jassids, Nymphs + Adults, B07: B07 (after 2nd spray); for Percent control (%) of Okra Jassids, Nymphs + Adults, B10: B10 (after 2nd spray); for Percent control (%) of Okra Jassids, Nymphs + Adults, B14: B14 (after 2nd spray); for Percent control (%) of Okra Jassids, Nymphs + Adults, C03: C03 = 3 days after third spray; for Percent control (%) of Okra Jassids, Nymphs + Adults, C10: C10 (after third spray)", "from_the_text": "as §1"}, "Okra Mites": {"tested_on": "Okra Mites", "assay": "Trials on controlling Okra Mites post 2nd and 3rd application (Example 2)", "details": "doses gm/ha: OSA 625 + Flonicamid 50 / Acetamipirid 50 / Lancer Gold 650, solo OSA 1250, Flonicamid 75, Acetamipirid 50, Lancer gold 650", "description": "Trials were conducted to test the efficacy of the combination of Flonicamid and Orthosilicic acid on controlling Okra Mites at different dosages post 2nd and 3rd application."}, "[3]": {"tested_on": "Corn FAW (Spodoptera frugiperda)", "details": "for Percent control (%) A01: A01 = 1 day after first spray; for Percent control (%) A14: A14 = 14 days after 1st spray; for Percent control (%) B03: B03 = 3 days after 2nd spray; for Percent control (%) B07: B07 (after 2nd spray); for Percent control (%) B10: B10 (after 2nd spray); for Percent control (%) B21: B21 (after 2nd spray)", "from_the_text": "Application method: Two applications (application A and B) within an interval of 14 days. A01=1 day after first spray, A14=14 days after 1st spray, B03=3 days after 2nd spray."}, "Okra Aphids": {"tested_on": "Okra Aphids", "assay": "Trials of Flonicamid and Orthosilicic acid on controlling Okra Aphids (Example 1)", "details": "doses gm/ha: OSA + Flonicamid 625 + 50, Flonicamid 75, OSA 1250", "description": "Trials were conducted to test the efficacy of the combination of Flonicamid and Orthosilicic acid on controlling Okra Aphids at different dosages."}, "[4]": {"details": "doses gm a.i./ha: OSA 25, Flonicamid 100, Acephate+Imidacloprid 520, Flonicamid+Fipronil 100+50, Imidacloprid 24.5, Acetamiprid 15"}, "[5]": {"details": "reduced insecticide dose, gm a.i./ha: OSA 25, Flonicamid (Ulala) 75, Acephate+Imidacloprid 390, Flonicamid+Fipronil 75+37.5, Imidacloprid 18.3, Acetamiprid 11.2"}, "[6]": {"details": "25% reduced dose rate, gm a.i./ha: OSA 25, Flonicamid 75, Acephate+Imidacloprid 390, Flonicamid+Fipronil 75+37.5, Imidacloprid 18.3, Acetamiprid 11.2"}, "[7]": {"details": "25% reduced dose of insecticide, gm a.i./ha: OSA 25, CTPR 22.5, Acephate 730, Novaluron 56, Novaluron+Lambda cyhalothrin 67.5, Novaluron+Emamectin 93.5"}, "[8]": {"details": "doses gm a.i./ha: OSA 25, CTPR 30, Acephate 970, Novaluron 75, Novaluron+Lambda cyhalothrin 90, Novaluron+Emamectin 125"}}, "note": "Read-outs that look alike come from different tables or passages of the source.", "data": [{"substance": "orthosilicic acid [OSA]", "values": [{"measurement": "Percent control (%) of Okra Aphids, Nymphs + Adults, A01", "setting": "[1]; [4]", "result": 32.3, "unit": "%"}, {"measurement": "Percent control (%) of Okra Aphids, Nymphs + Adults, A01", "setting": "[1]; [5]", "result": 30.2, "unit": "%"}, {"measurement": "Percent control (%) of Okra Aphids, Nymphs + Adults, A10", "setting": "[1]; A10 (after 1st spray), doses gm a.i./ha: OSA 25, Flonicamid 100, Acephate+Imidacloprid 520, Flonicamid+Fipronil 100+50, Imidacloprid 24.5, Acetamiprid 15", "result": 48.5, "unit": "%"}, {"measurement": "Percent control (%) of Okra Aphids, Nymphs + Adults, A14", "setting": "[1]; A14 = 14 days after 1st spray, reduced insecticide dose, gm a.i./ha: OSA 25, Flonicamid (Ulala) 75, Acephate+Imidacloprid 390, Flonicamid+Fipronil 75+37.5, Imidacloprid 18.3, Acetamiprid 11.2", "result": 47, "unit": "%"}, {"measurement": "Percent control (%) of Okra Aphids, Nymphs + Adults, B03", "setting": "[1]; [4]", "result": 52, "unit": "%"}, {"measurement": "Percent control (%) of Okra Aphids, Nymphs + Adults, B03", "setting": "[1]; [5]", "result": 55, "unit": "%"}, {"measurement": "Percent control (%) of Okra Aphids, Nymphs + Adults, B07", "setting": "[1]; [4]", "result": 56, "unit": "%"}, {"measurement": "Percent control (%) of Okra Aphids, Nymphs + Adults, B07", "setting": "[1]; [5]", "result": 57.7, "unit": "%"}, {"measurement": "Percent control (%) of Okra Aphids, Nymphs + Adults, B10", "setting": "[1]; [4]", "result": 56.1, "unit": "%"}, {"measurement": "Percent control (%) of Okra Aphids, Nymphs + Adults, B10", "setting": "[1]; [5]", "result": 55.7, "unit": "%"}, {"measurement": "Percent control (%) of Okra Aphids, Nymphs + Adults, C03", "setting": "[1]; [4]", "result": 57, "unit": "%"}, {"measurement": "Percent control (%) of Okra Aphids, Nymphs + Adults, C03", "setting": "[1]; [5]", "result": 59.4, "unit": "%"}, {"measurement": "Percent control (%) of Okra Aphids, Nymphs + Adults, C10", "setting": "[1]; [4]", "result": 59.7, "unit": "%"}, {"measurement": "Percent control (%) of Okra Aphids, Nymphs + Adults, C10", "setting": "[1]; [5]", "result": 60.3, "unit": "%"}, {"measurement": "Percent control (%) of Okra Jassids, Nymphs + Adults, A01", "setting": "[2]; [6]", "result": 27.9, "unit": "%"}, {"measurement": "Percent control (%) of Okra Jassids, Nymphs + Adults, A01", "setting": "[2]; [4]", "result": 25.3, "unit": "%"}, {"measurement": "Percent control (%) of Okra Jassids, Nymphs + Adults, A10", "setting": "[2]; [6]", "result": 37, "unit": "%"}, {"measurement": "Percent control (%) of Okra Jassids, Nymphs + Adults, A10", "setting": "[2]; [4]", "result": 35.8, "unit": "%"}, {"measurement": "Percent control (%) of Okra Jassids, Nymphs + Adults, B03", "setting": "[2]; [6]", "result": 40.9, "unit": "%"}, {"measurement": "Percent control (%) of Okra Jassids, Nymphs + Adults, B03", "setting": "[2]; [4]", "result": 42.7, "unit": "%"}, {"measurement": "Percent control (%) of Okra Jassids, Nymphs + Adults, B07", "setting": "[2]; [6]", "result": 47.9, "unit": "%"}, {"measurement": "Percent control (%) of Okra Jassids, Nymphs + Adults, B07", "setting": "[2]; [4]", "result": 46.5, "unit": "%"}, {"measurement": "Percent control (%) of Okra Jassids, Nymphs + Adults, B10", "setting": "[2]; [6]", "result": 48.6, "unit": "%"}, {"measurement": "Percent control (%) of Okra Jassids, Nymphs + Adults, B10", "setting": "[2]; [4]", "result": 45.5, "unit": "%"}, {"measurement": "Percent control (%) of Okra Jassids, Nymphs + Adults, B14", "setting": "[2]; [6]", "result": 43, "unit": "%"}, {"measurement": "Percent control (%) of Okra Jassids, Nymphs + Adults, B14", "setting": "[2]; [4]", "result": 44.7, "unit": "%"}, {"measurement": "Percent control (%) of Okra Jassids, Nymphs + Adults, C03", "setting": "[2]; [6]", "result": 45.5, "unit": "%"}, {"measurement": "Percent control (%) of Okra Jassids, Nymphs + Adults, C03", "setting": "[2]; [4]", "result": 46.9, "unit": "%"}, {"measurement": "Percent control (%) of Okra Jassids, Nymphs + Adults, C10", "setting": "[2]; [6]", "result": 49.1, "unit": "%"}, {"measurement": "Percent control (%) of Okra Jassids, Nymphs + Adults, C10", "setting": "[2]; [4]", "result": 48.6, "unit": "%"}, {"measurement": "Percent control B07", "setting": "Okra Mites; B07", "result": 10, "unit": "%"}, {"measurement": "Percent control C-01", "setting": "Okra Mites; C-01", "result": 19.3, "unit": "%"}, {"measurement": "Percent control C-10", "setting": "Okra Mites; C-10", "result": 11.7, "unit": "%"}, {"measurement": "Percent control Mean", "setting": "Okra Mites; Mean of B07, C-01, C-10", "result": 13.66, "unit": "%"}, {"measurement": "Percent control (%) A01", "setting": "[3]; [7]", "result": 29.3, "unit": "%"}, {"measurement": "Percent control (%) A01", "setting": "[3]; [8]", "result": 32.4, "unit": "%"}, {"measurement": "Percent control (%) A14", "setting": "[3]; [7]", "result": 44.8, "unit": "%"}, {"measurement": "Percent control (%) A14", "setting": "[3]; [8]", "result": 47.4, "unit": "%"}, {"measurement": "Percent control (%) B03", "setting": "[3]; [7]", "result": 51.9, "unit": "%"}, {"measurement": "Percent control (%) B03", "setting": "[3]; [8]", "result": 53.7, "unit": "%"}, {"measurement": "Percent control (%) B07", "setting": "[3]; [7]", "result": 61.4, "unit": "%"}, {"measurement": "Percent control (%) B07", "setting": "[3]; [8]", "result": 58.6, "unit": "%"}, {"measurement": "Percent control (%) B10", "setting": "[3]; [7]", "result": 57.9, "unit": "%"}, {"measurement": "Percent control (%) B10", "setting": "[3]; [8]", "result": 60.6, "unit": "%"}, {"measurement": "Percent control (%) B21", "setting": "[3]; [7]", "result": 56.5, "unit": "%"}, {"measurement": "Percent control (%) B21", "setting": "[3]; [8]", "result": 59.0, "unit": "%"}, {"measurement": "Percent control B01", "setting": "Okra Aphids; B01", "result": 29.6, "unit": "%"}, {"measurement": "Percent control C-01", "setting": "Okra Aphids; C-01", "result": 23.3, "unit": "%"}, {"measurement": "Percent control C-10", "setting": "Okra Aphids; C-10", "result": 26.7, "unit": "%"}, {"measurement": "Percent control Mean", "setting": "Okra Aphids; Mean of B01, C-01, C-10", "result": 26.53, "unit": "%"}]}]}
